IC50 data for five compounds are collected here from ChEMBL document CHEMBL4342406, “Revealing quinquennial anticancer journey of morpholine: A SAR based review” (Eur J Med Chem, 2019).

Molecules are shown by their SMILES.

Test [1] concerns the target Epidermal growth factor receptor (Homo sapiens, UniProt P00533, T790M). Put plainly: Inhibition of EGFR T790M mutant (unknown origin) incubated for 60 mins by ADP-Glo kinase assay. (In general: In ADP-Glo the light output rises with the ADP produced.)
Test [2] concerns A549. Put plainly: Antiproliferative activity in human A549 cells by MTT assay. The test is classed as functional, cell-based. In general terms: Formazan colour is commonly taken as a measure of viable cells.
Test [3] has as its system MCF7. As to the kind of experiment: Antiproliferative activity in human MCF7 cells by MTT assay. In kind it is functional, cell-based.
The test system of test [4] is BEL-7404 tumor cell line. As to the kind of experiment: Antiproliferative activity in human Bel7404 cells by MTT assay. The test is classed as functional, cell-based.
Test [5] has as its system Lymphocyte. As to the kind of experiment: Cytotoxicity against human lymphocytes assessed as reduction in cell viability after 72 hrs by MTT assay. The test is classed as cell-based.
The subject of test [6] is HT-29. Put plainly: Cytotoxicity against human HT-29 cells assessed as reduction in cell viability after 72 hrs by MTT assay. In kind it is functional, cell-based. As to conditions: HT-29, 72 h.
Test [7] deals with A549. Put plainly: Cytotoxicity against human A549 cells assessed as reduction in cell viability after 72 hrs by MTT assay. The test is classed as functional, cell-based. As to conditions: A549, 72 h.
Test [8] has as its system MCF7. As to the kind of experiment: Cytotoxicity against human MCF7 cells assessed as reduction in cell viability incubated for 3 days by MTT assay. In kind it is functional, cell-based. As to conditions: MCF7, 72 h.
Test [9] has as its system SMMC-7721. As to the kind of experiment: Antiproliferative activity in human SMMC7721 cells after 72 hrs by MTS assay. As to conditions: SMMC-7721, 72 h. In kind it is functional, cell-based.
Test [10] deals with Bel-7402. As to the kind of experiment: Antiproliferative activity in human Bel7402 cells after 72 hrs by MTS assay. The test is classed as functional, cell-based. As to conditions: Bel-7402, 72 h.
For test [11], the system named is QGY-7703. Put plainly: Antiproliferative activity in human QGY7703 cells after 72 hrs by MTS assay. The test is classed as functional, cell-based. As to conditions: QGY-7703, 72 h.

A word on the IC50: it is the concentration that gives 50% inhibition.

Sequence of Epidermal growth factor receptor (P00533 25-1210 T790M limits assumed): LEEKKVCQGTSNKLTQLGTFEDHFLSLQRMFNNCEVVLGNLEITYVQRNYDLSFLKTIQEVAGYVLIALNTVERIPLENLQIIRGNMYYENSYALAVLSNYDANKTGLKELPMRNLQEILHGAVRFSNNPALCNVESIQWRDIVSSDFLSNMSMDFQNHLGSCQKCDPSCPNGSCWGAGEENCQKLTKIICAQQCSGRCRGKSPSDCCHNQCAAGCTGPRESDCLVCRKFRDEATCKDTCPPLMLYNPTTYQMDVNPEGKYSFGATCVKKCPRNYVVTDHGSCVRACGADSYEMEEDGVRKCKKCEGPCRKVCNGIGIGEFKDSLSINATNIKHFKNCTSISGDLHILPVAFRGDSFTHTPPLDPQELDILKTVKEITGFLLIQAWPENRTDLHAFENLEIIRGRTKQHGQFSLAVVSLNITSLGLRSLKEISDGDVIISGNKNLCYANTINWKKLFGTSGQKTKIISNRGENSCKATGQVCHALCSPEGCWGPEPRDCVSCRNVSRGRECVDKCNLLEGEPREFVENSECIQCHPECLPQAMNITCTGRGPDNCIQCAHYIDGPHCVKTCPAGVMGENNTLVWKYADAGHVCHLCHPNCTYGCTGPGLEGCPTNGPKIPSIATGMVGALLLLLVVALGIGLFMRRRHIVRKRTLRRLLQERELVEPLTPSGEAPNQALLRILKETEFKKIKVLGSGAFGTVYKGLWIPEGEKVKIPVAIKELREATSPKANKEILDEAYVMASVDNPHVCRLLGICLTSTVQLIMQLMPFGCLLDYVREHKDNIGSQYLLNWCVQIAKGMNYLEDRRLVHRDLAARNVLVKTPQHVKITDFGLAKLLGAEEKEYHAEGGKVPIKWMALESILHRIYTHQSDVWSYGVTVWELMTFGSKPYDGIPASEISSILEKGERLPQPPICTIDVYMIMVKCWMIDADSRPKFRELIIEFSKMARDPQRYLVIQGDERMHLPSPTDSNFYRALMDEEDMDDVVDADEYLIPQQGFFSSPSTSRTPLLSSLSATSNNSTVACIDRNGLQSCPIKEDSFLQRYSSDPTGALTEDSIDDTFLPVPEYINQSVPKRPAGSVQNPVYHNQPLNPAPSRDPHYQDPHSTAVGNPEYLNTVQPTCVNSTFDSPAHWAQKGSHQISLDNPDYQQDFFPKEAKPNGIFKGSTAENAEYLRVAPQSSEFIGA

In test [1], `C=CC(=O)Nc1cccc(Nc2ncnc3cc(OC)c(OCCN4CCOCC4)cc23)c1` showed an IC50 of 0.0043 µM.
Consider `CCCCCCCCCC[C@H](O)COCCOC[C@@H](O)CCCCCCCCCCCCCCN1CCOCC1`, for which the IC50 in test [2] came out at 11.7 µM; in test [3], 13 µM; in test [4], 25.8 µM.
On to `COc1ccc(Cn2cnc3c(cc(N4CCOCC4)c4ccccc43)c2=O)cc1`, for which the IC50 was found to be 175 µM in test [5], 4.12 µM in test [6] and 134 µM in test [7].
Take `COc1c2ccoc2c(S(=O)(=O)N2CCOCC2)c2oc(C)c(C(C)=O)c(=O)c12`: the half-inhibitory concentration (IC50) in test [8] was 0.125 µM.
As for `O=c1ccc(-c2cc(C(F)(F)F)c(N3CCOCC3)nn2)n[nH]1`, the IC50 in test [9] was determined as 0.123 µM; in test [10], 0.285 µM; in [11], 0.178 µM.
